Experimental data taken from PMC7157825, “Romo1-Derived Antimicrobial Peptide Is a New Antimicrobial Agent against Multidrug-Resistant Bacteria in a Murine Model of Sepsis” (mBio, 2020).
Where no end group is shown, it is not given here.

Experiments:
MRSA = test: Murine model of sepsis caused by MDR bacteria; format: in vivo, mouse; conditions: for increase of survival rate: 3 × 10^8 CFU iv, AMPR-11 10 mg/kg iv single dose, imipenem 10 mg/kg ip four times q12h, 15 mice/group
CRPA = test: Murine model of sepsis caused by MDR bacteria; format: in vivo, mouse; conditions: for increase of survival rate: 8 × 10^7 CFU iv, AMPR-11 10 mg/kg iv single dose, imipenem 10 mg/kg ip four times q12h, 15 mice/group
CRKP = test: Murine model of sepsis caused by MDR bacteria; format: in vivo, mouse; conditions: 8 × 10^8 CFU iv; AMPR-11 10 mg/kg iv single dose; imipenem 10 mg/kg ip four times q12h; 15 mice/group
CRAB = test: Murine model of sepsis caused by MDR bacteria; format: in vivo, mouse; conditions: 5 × 10^8 CFU iv; AMPR-11 10 mg/kg iv single dose; imipenem 10 mg/kg ip four times q12h; 15 mice/group
[1] = test system: P. aeruginosa (ATCC 27853); format: cell-based, Pseudomonas aeruginosa; conditions: ATCC 27853, 1 h, pH 7.4
Description: (§1) The minimum bactericidal concentration was determined as previously described with minor modifications ([29]). Briefly, bacteria (5 × 10^5 CFU/ml) in 10 mM phosphate buffer (pH 7.4) with a 1% volume of TS broth were incubated with various peptide dilutions in a 96-well plate. After incubation for 1 h, samples were placed on TS agar plates and incubated overnight at 37°C. The peptide concentration at which no colonies were identified on the plate was determined to be the MBC.

S. aureus (ATCC 29213) [2] = format: cell-based, Staphylococcus aureus; conditions: ATCC 29213, 1 h, pH 7.4
Description: as §1

S. pneumoniae = format: cell-based; conditions: 1 h, pH 7.4
Description: as §1

[3] = test system: Vancomycin-resistant S. aureus; format: cell-based, Staphylococcus aureus; conditions: 1 h, pH 7.4
Description: as §1

[4] = test system: Vancomycin-resistant E. faecium; format: cell-based, Enterococcus faecium; conditions: 1 h, pH 7.4
Description: as §1

[5] = Functional half-life of antimicrobial activity in mouse plasma; format: in vitro ADME; conditions: 75% PBS and 25% mouse plasma (EDTA separation); pre-incubation 0, 5, 15, 30, 45, 60, or 75 min, then P. aeruginosa or S. aureus for 1 h; read-out CFU assay (antimicrobial activity)
[6] = Functional half-life of antimicrobial activity in human serum; format: in vitro ADME; conditions: human serum (H4522; Sigma-Aldrich); pre-incubation 0, 5, 15, 30, 45, 60, or 75 min, then P. aeruginosa or S. aureus for 1 h; read-out CFU assay (antimicrobial activity)
[7] = Effect of blood components on antimicrobial activity; format: in vitro ADME; conditions: mouse RBCs, human LDL, human HDL, bovine serum albumin; incubated for indicated times, then bacteria 1 h; CFU assay
[8] = test system: P. aeruginosa (ATCC 27853); test: Murine model of sepsis; format: in vivo, mouse
S. aureus (ATCC 29213) [9] = test: Murine model of sepsis; format: in vivo, mouse
[10] = test system: K. pneumoniae (ATCC 13883); test: Murine model of sepsis; format: in vivo, mouse
[11] = test system: A. baumannii (ATCC 19606); test: Murine model of sepsis; format: in vivo, mouse
Mouse RBCs = format: cell-based
Description: Mouse RBCs were rinsed several times with PBS and centrifuged for 10 min at 2,000 rpm. […] After incubating for 1 h, the cells were pelleted at 1,000 × g for 10 min, and the absorbance of the supernatant was measured at 570 nm. The OD of the control was that of PBS (blank), and 1% Triton X-100 was used as the positive control.

[12] = CF release from CF-encapsulated large unilamellar vesicles; conditions: 1 μg/ml of peptide; fluorescence; compared with melittin, magainin 2, daptomycin
Description: Portions (10 μl) of the lipid mixture of E. coli total lipid extract were dried and rehydrated with 50 mM CF, 100 mM sucrose, and 5 mM HEPES/KOH (pH 7.4). Multilamellar liposomal suspensions were extruded with a 0.1-μm polycarbonate membrane using an Avanti Mini Extruder and purified by a PD-10 column (GE Healthcare, Buckinghamshire, United Kingdom) as previously described. The peptides were added to LUVs, and CF leakage was measured using Fluroskan Ascent FL (Thermo Labsystems, UK) in external buffer (150 mM KCl and 10 mM HEPES/Tris; pH 7). CF leakage was calculated using the following formula: CF leakage (%) = 100 × (F – F0)/(Fmax – F0), where F is the measured fluorescence intensity, F0 is the basal LUV fluorescence intensity, and Fmax is the fluorescence intensity of LUVs treated with 0.2% Triton X-100.

[13] = Protein lipid overlay (PLO) assay; format: binding; conditions: TAMRA-AMPR-11 2 μg/ml, 2 h; 20 pmol of each lipid (PC, PG, PS, PE, PA, PI, lipid A, CL) on nitrocellulose
Description: The experiment was performed as previously described ([53]) with minor modifications. The lipid of PC, PG, PS, PE, PA, PI, lipid A, or CL was diluted and placed on the supported nitrocellulose membrane at 20 pmol and dried at room temperature. The membrane was blocked with Tris-buffered saline-Tween 20 (TBS-Tween 20, 50 mM Tris-HCl, 150 mM NaCl, and 0.1% Tween 20) containing 0.2% fatty acid-free bovine albumin for 1 h. After several washes in TBS, the membrane was incubated with TAMRA-AMPR-11 at 2 μg/ml in blocking solution for 2 h. After several washes with TBS-Tween 20, the fluorescent signal was detected using a fluorescent image scanner (Typhoon FLA 9500).

GFP-expressing EIEC = test: GFP efflux / permeabilization of GFP-expressing EIEC; format: cell-based, Enteroinvasive Escherichia coli
Description: Flow cytometric assay to measure the efflux of GFP from GFP-expressing EIEC was performed using a FACS Canto II (Biosciences, CA). […] The number of internalized EIEC in HeLa cells (pcDNA 3.1 or pcDNA 3.1-Flag-Romo1/Control siRNA, Romo1 siRNA-1, or Romo1 siRNA-2) was measured using CFDA-stained EIEC. The data were measured and analyzed with FlowJo software (Tree Star, Inc., Ashland, OR).

C57BL/6 mouse = test: Single-dose safety in mice; conditions: single dose 100 mg/kg intravenously; tracked for 15 days; compared to PBS
EIEC = EIEC growth by spectrophotometry; format: cell-based, Enteroinvasive Escherichia coli; conditions: 1 μg/ml of Romo1 protein
[14] = mouse blood after 48 h of infection, 10 mg/kg iv single dose
[15] = peptides iv 1 h after infection, tail vein blood 1 h after peptide administration

Molecule: C[C@@H](O)[C@H]1C(=O)N2C(C(=O)O)=C(SCCN=CN)C[C@H]12 [imipenem, reference compound]
- increase of survival rate (MRSA): of little effectiveness
- increase of survival rate (CRPA): of little effectiveness
- increase of survival rate (CRKP): of little effectiveness
- increase of survival rate (CRAB): of little effectiveness

Molecule: GGIGKTMMQSGGTFGTFMAIGMGIR [G54-R78]
- MBC value P. aeruginosa [1]: 300 µg/mL
- MBC value S. aureus (S. aureus (ATCC 29213) [2]): 300 µg/mL

Molecule: GGIGKTMMQSGGTFGTFMAIGMGIRC [G54-C79]
- MBC value P. aeruginosa [1]: 300 µg/mL
- MBC value S. aureus (S. aureus (ATCC 29213) [2]): 300 µg/mL

Molecule: GKTMMQSGGTFGTFMAIGMGIR [G57-R78]
- MBC value P. aeruginosa [1]: 280 µg/mL
- MBC value S. aureus (S. aureus (ATCC 29213) [2]): 300 µg/mL

Molecule: GKTMMQSGGTFGTFMAIGMGIRC [G57-C79]
- MBC value P. aeruginosa [1]: 250 µg/mL
- MBC value S. aureus (S. aureus (ATCC 29213) [2]): 280 µg/mL

Molecule: IGKTMMQSGGTFGTFMAIGMGIR [I56-R78]
- MBC value P. aeruginosa [1]: 300 µg/mL
- MBC value S. aureus (S. aureus (ATCC 29213) [2]): 300 µg/mL

Molecule: IGKTMMQSGGTFGTFMAIGMGIRC [I56-C79]
- MBC value P. aeruginosa [1]: 300 µg/mL
- MBC value S. aureus (S. aureus (ATCC 29213) [2]): 300 µg/mL

Molecule: KTMMQSGGTFGTFMAIGM [K58-M75]
- MBC value P. aeruginosa [1]: 300 µg/mL
- MBC value S. aureus (S. aureus (ATCC 29213) [2]): 300 µg/mL

Molecule: KTMMQSGGTFGTFMAIGMG [K58-G76]
- MBC value P. aeruginosa [1]: 300 µg/mL
- MBC value S. aureus (S. aureus (ATCC 29213) [2]): 300 µg/mL

Molecule: KTMMQSGGTFGTFMAIGMGI [K58-I77]
- MBC value P. aeruginosa [1]: 300 µg/mL
- MBC value S. aureus (S. aureus (ATCC 29213) [2]): 300 µg/mL

Molecule: KTMMQSGGTFGTFMAIGMGIR [AMPR-11]
- MBC value S. pneumoniae (S. pneumoniae): 100 µg/mL
- MBC value Vancomycin-resistant S. aureus [3]: 120 µg/mL
- MBC value Vancomycin-resistant E. faecium [4]: 100 µg/mL
- functional half-life in plasma [5]: approximately 50 min
- functional half-life in serum [6]: ~40 min
- antimicrobial activity after incubation with blood components [7]: not inhibited by RBCs, LDL, HDL, or albumin
- increase of survival rate ([8]; C57BL/6N mice, 2 × 10^7 CFU iv, AMPR-11 10 mg/kg iv single dose 1 h after infection, 20 mice/group, 15 days): > 60%
- bacterial load in blood [8, 14]: decrease in the bacterial load in blood
- bacterial load in blood over time (S. aureus (ATCC 29213) [9]; AMPR-11 administered immediately after infection, tail vein blood, CFU relative to PBS group): rapidly decreased the bacterial load in blood
- increase of survival rate (S. aureus (ATCC 29213) [9]; C57BL/6N mice, 1 × 10^8 CFU iv, AMPR-11 10 mg/kg iv single dose 1 h after infection, 20 mice/group, 15 days): > 60%
- bacterial load in blood (S. aureus (ATCC 29213) [9]; [14]): decrease in the bacterial load in blood
- increase of survival rate ([10]; C57BL/6N mice, 8 × 10^8 CFU iv, AMPR-11 10 mg/kg iv single dose 1 h after infection, 15 mice/group, 15 days): > 60%
- bacterial load in blood [10, 14]: decrease in the bacterial load in blood
- increase of survival rate ([11]; C57BL/6N mice, 4 × 10^8 CFU iv, AMPR-11 10 mg/kg iv single dose 1 h after infection, 15 mice/group, 15 days): > 60%
- bacterial load in blood [11, 14]: decrease in the bacterial load in blood
- increase of survival rate (MRSA): > 60%
- bacterial load in the liver, spleen, and kidney (MRSA; CFU assay of organ homogenates, 10 mg/kg iv single dose): decrease in bacterial load in the liver, spleen, and kidney
- antimicrobial activity in blood (CFU counts) compared with known AMPs (MRSA; [15]): statistically better than that of magainin 2, LL-37, or daptomycin
- increase of survival rate (CRPA): > 60%
- antimicrobial activity in blood (CFU counts) compared with known AMPs (CRPA; [15]): statistically better than that of magainin 2, LL-37, or daptomycin
- increase of survival rate (CRKP): > 60%
- increase of survival rate (CRAB): > 60%
- hemolytic activity (Mouse RBCs): less cytotoxicity (Fig. 4A) and hemolytic activity (Fig. 4B) than magainin 2 and daptomycin
- CF release [12]: to a similar extent as melittin
- lipid preference (binding) [13]: specifically bound to lipid A and cardiolipin (CL)
- time to kill bacteria (GFP-expressing EIEC; Fig. 2E, TAMRA-AMPR-11 with GFP-expressing EIEC): ≤ 10 min
- clinical signs (death, weight loss) (C57BL/6 mouse): no severe clinical signs such as death or weight loss

Molecule: KTMMQSGGTFGTFMAIGMGIRC [K58-C79]
- MBC value P. aeruginosa [1]: 130 µg/mL
- MBC value S. aureus (S. aureus (ATCC 29213) [2]): 150 µg/mL

Molecule: LMGGIGKTMMQSGGTFGTFMAIGMGIR [L52-R78]
- MBC value P. aeruginosa [1]: 300 µg/mL
- MBC value S. aureus (S. aureus (ATCC 29213) [2]): 300 µg/mL

Molecule: LMGGIGKTMMQSGGTFGTFMAIGMGIRC [L52-C79]
- MBC value P. aeruginosa [1]: 300 µg/mL
- MBC value S. aureus (S. aureus (ATCC 29213) [2]): 300 µg/mL

Molecule: MMQSGGTFGTFMAIGMGIR [M60-R78]
- MBC value P. aeruginosa [1]: 300 µg/mL
- MBC value S. aureus (S. aureus (ATCC 29213) [2]): 300 µg/mL

Molecule: MMQSGGTFGTFMAIGMGIRC [M60-C79]
- MBC value P. aeruginosa [1]: > 300 µg/mL
- MBC value S. aureus (S. aureus (ATCC 29213) [2]): > 300 µg/mL

B1: Romo1: reactive oxygen species modulator 1, chemically synthesized, dissolved in 75% trifluoroethanol (peptide, UniProt P60602 2-79, looked up)
Reactive oxygen species …: PVAVGPYGQSQPSCFDRVKMGFVMGCAVGMAAGALFGTFSCLRIGMRGRELMGGIGKTMMQSGGTFGTFMAIGMGIRC
- GFP efflux (GFP-expressing EIEC; 100 nM Romo1, flow cytometry): induced green fluorescent protein (GFP) efflux
- bacterial growth (EIEC): inhibited EIEC growth
